The target in assay [1] is T1, human 11βHSD1 enzyme (Homo sapiens (Human), UniProt P28845). The note with it: for % inhibition of human 11-βHSD: test concentration of 30 μM of compound.
The target in assay [2] is T1, human 11βHSD1 enzyme. Description: biochemical. The note with it: for inhibition at 30 µM: read-out: % inhibition of human 11-βHSD.

T1 sequence (P28845 whole entry): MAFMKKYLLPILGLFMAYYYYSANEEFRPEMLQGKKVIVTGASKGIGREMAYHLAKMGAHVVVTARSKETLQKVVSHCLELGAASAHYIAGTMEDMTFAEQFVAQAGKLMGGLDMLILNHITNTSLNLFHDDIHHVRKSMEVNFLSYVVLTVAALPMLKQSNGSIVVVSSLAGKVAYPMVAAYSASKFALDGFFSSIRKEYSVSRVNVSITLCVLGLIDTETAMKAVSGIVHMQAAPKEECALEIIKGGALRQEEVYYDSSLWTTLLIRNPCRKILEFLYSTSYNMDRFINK

Consider `O=C(O)C[C@@H]1CCCN(c2ccc(C(=O)NC3C4CC5CC(C4)CC3C5)cn2)C1` (stereo partly drawn) [2-[(3S)-1-[5-(2-adamantylcarbamoyl)pyridin-2-yl]-3-piperidyl]acetic acid], for which, in assay [1] (repeat assays), the “50% inhibition of the enzyme achieved” value was “achieved 50% inhibition in one assay, but in a subsequent 3 assays did not”. With `CCCOc1nc(N2CCC[C@@H](CC(=O)O)C2)ccc1C(=O)N[C@H]1C2CC3CC1C[C@](OC(F)F)(C3)C2` [Example 181, 2-[(3S)-1-[5-[[(2r,5s)-5-(Difluoromethoxy)-2-adamantyl]carbamoyl]-6-propoxy-pyridin-2-yl]-3-piperidyl]acetic acid], in assay [2], the inhibition at 30 µM is 93%.

For the compound `O=C(N[C@H]1C2CC3CC1C[C@](OC(F)F)(C3)C2)c1ccc(N2CC[C@@H](C(=O)O)C2)nc1SC1CCCC1` [Example 182, (3R)-1-[6-cyclopentylsulfanyl-5-[[(2r,5s)-5-(difluoromethoxy)-2-adamantyl]carbamoyl]pyridin-2-yl]pyrrolidine-3-carboxylic acid], the inhibition at 30 µM in assay [2] came out at 91%. The same measure, in the same setting: then `CCCSc1nc(N2CC[C@H](CC(=O)O)C2)ccc1C(=O)N[C@H]1C2CC3CC1C[C@](OC(F)F)(C3)C2` [Example 184, 2-[(3R)-1-[5-[[(2r,5s)-5-(difluoromethoxy)-2-adamantyl]carbamoyl]-6-propylsulfanyl-pyridin-2-yl]pyrrolidin-3-yl]acetic acid], with 94%; and `CCCSc1nc(N2CCC(C(=O)O)C2)ccc1C(=O)N[C@H]1C2CC3CC1C[C@](OC(F)F)(C3)C2` (stereo partly drawn) [Example 185, 1-[5-[[(2r,5S)-5-(difluoromethoxy)-2-adamantyl]carbamoyl]-6-propylsulfanyl-pyridin-2-yl]pyrrolidine-3-carboxylic acid], with 97%; and `CCCSc1nc(N2CCC[C@@H](CC(=O)O)C2)c(F)cc1C(=O)NC1CCCCC1` [Example 186, (S)-2-(1-(5-(Cyclohexylcarbamoyl)-3-fluoro-6-(propylthio)pyridin-2-yl)piperidin-3-yl)acetic acid], with 104%.

Consider `CCCSc1nc(N2CCC[C@H](CC(=O)O)C2)c(F)cc1C(=O)NC1CCCCC1` [Example 187, (R)-2-(1-(5-(Cyclohexylcarbamoyl)-3-fluoro-6-(propylthio)pyridin-2-yl)piperidin-3-yl)acetic acid], for which, in assay [2], the inhibition at 30 µM stood at 90%. As for `O=C(O)C[C@@H]1CCCN(c2ccc(C(=O)N[C@H]3C4CC5CC3C[C@@](O)(C5)C4)c(SCc3ccccc3)n2)C1` [compound 107], the “% inhibition of human 11-βHSD” value in assay [1] turned out to be 90%. The same measure, in the same setting: then `O=C(O)C[C@@H]1CCCN(c2ccc(C(=O)NC3C4CC5CC3CC(O)(C5)C4)c(SCCc3ccccc3)n2)C1` (some centres unmarked) [compound 108], with 88%. On to `O=C(O)C[C@@H]1CCCN(c2ccc(C(=O)NC3CCCCC3)c(SCCc3cccnc3)n2)C1` [compound 131, 2-[(3S)-1-[5-(cyclohexyl-carbamoyl)-6-(2-pyridin-3-ylethylsulfanyl)pyridin-2-yl]-3-piperidyl] acetic acid], for which the inhibition at 30 µM in assay [2] was determined as 91%.

Take `O=C(O)C[C@@H]1CCCN(c2ccc(C(=O)NC3CCCCC3)c(SCCc3cnccn3)n2)C1` [compound 132, 2-[(3S)-1-[5-(cyclohexyl-carbamoyl)-6-(2-pyrazin-2-ylethylsulfanyl)pyridin-2-yl]-3-piperidyl] acetic acid]: the inhibition at 30 µM in assay [2] was determined as 98%. For the compound `O=C(O)C[C@@H]1CCCN(c2ccc(C(=O)NC3CCCCC3)cn2)C1` [compound 133], the “% inhibition of human 11-βHSD” value in assay [1] came to 58%. In the case of `O=C(O)C[C@@H]1CCCN(c2ccc(C(=O)NC3CCCCC3)c(OCCc3ccc(F)cc3)n2)C1` [compound 135, 2-[(3S)-1-[5-(cyclohexyl-carbamoyl)-6-[2-(4-fluorophenyl)ethoxy]pyridin-2-yl]-3-piperidyl] acetic acid], the inhibition at 30 µM in assay [2] amounted to 92%. In the case of `O=C(O)C[C@@H]1CCCN(c2ccc(C(=O)NC3CCCCC3)c(OCCCc3ccccc3)n2)C1` [compound 137, 2-[(3S)-1-[5-(cyclohexyl-carbamoyl)-6-(3-phenylpropoxy)pyridin-2-yl]-3-piperidyl] acetic acid], the inhibition at 30 µM in assay [2] was determined as 99%. On the same count and under the same terms, then `O=C(O)C[C@@H]1CCCN(c2ccc(C(=O)NC3CCCCC3)c(OCCc3cccnc3)n2)C1` [compound 138, 2-[(3S)-1-[5-(cyclohexyl-carbamoyl)-6-(2-pyridin-3-ylethoxy)pyridin-2-yl]-3-piperidyl] acetic acid], with 98%; and `COc1nc(N2CCC[C@@H](CC(=O)O)C2)ccc1C(=O)NC1CCCCC1` [compound 139, 2-[(3S)-1-[5-(cyclohexyl-carbamoyl)-6-methoxy-pyridin-2-yl]-3-piperidyl] acetic acid], with 89%; and `O=C(O)C[C@@H]1CCCN(c2ccc(C(=O)NC3CCCCC3)c(N3CCCCC3)n2)C1` [compound 141, 2-[(3S)-1-[5-(cyclohexylcarbamoyl)-6-(1-piperidyl)pyridin-2-yl]-3-piperidyl]acetic acid], with 96%. For `O=C(O)C[C@@H]1CCCN(c2ccc(C(=O)NC3CCCCC3)c(NCCc3ccc(Cl)cc3)n2)C1` [compound 142, 2-[(3S)-1-[6-[2-(4-chlorophenyl)ethylamino]-5-(cyclohexylcarbamoyl)pyridin-2-yl]-3-piperidyl]acetic acid], the inhibition at 30 µM in assay [2] worked out at 94%.

With `O=C(O)C[C@@H]1CCCN(c2ccc(C(=O)NC3CCCCC3)c(N3CCC(c4ccc(F)cc4)C3)n2)C1` (stereo partly drawn) [compound 143, 2-[(3S)-1-[5-(cyclohexylcarbamoyl)-6-[3-(4-fluorophenyl)pyrrolidin-1-yl]pyridin-2-yl]-3-piperidyl]acetic acid], the inhibition at 30 µM in assay [2] amounted to 95%. Same read-out and setting: then `O=C(O)C[C@@H]1CCCN(c2ccc(C(=O)NC3CCCCC3)c(N3CCc4ccccc4C3)n2)C1` [compound 144, 2-[(3S)-1-[5-(cyclohexylcarbamoyl)-6-(3,4-dihydro-1H-isoquinolin-2-yl)pyridin-2-yl]-3-piperidyl]acetic acid], with 93%; and `O=C(O)C[C@@H]1CCCN(c2ccc(C(=O)NC3CCCCC3)c(N3CCN(c4ccccc4)CC3)n2)C1` [compound 145, 2-[(3S)-1-[5-(cyclohexylcarbamoyl)-6-(4-phenylpiperazin-1-yl)pyridin-2-yl]-3-piperidyl]acetic acid], with 84%; and `O=C(O)C[C@@H]1CCCN(c2ccc(C(=O)NC3CCCCC3)c(N3CCN(C(=O)c4ccc(F)cc4)CC3)n2)C1` [compound 146, 2-[(3S)-1-[5-(cyclohexyl-carbamoyl)-6-[4-(4-fluorobenzoyl)piperazin-1-yl]pyridin-2-yl]-3-piperidyl]acetic acid], with 58%. As for `CC(=O)N1CCN(c2nc(N3CCC[C@@H](CC(=O)O)C3)ccc2C(=O)NC2CCCCC2)CC1` [compound 147, 2-[(3S)-1-[6-(4-acetylpiperazin-1-yl)-5-(cyclohexylcarbamoyl)pyridin-2-yl]-3-piperidyl]acetic acid], the inhibition at 30 µM in assay [2] turned out to be 86%. Still for that read-out and setting: then `CCS(=O)(=O)N1CCN(c2nc(N3CCC[C@@H](CC(=O)O)C3)ccc2C(=O)NC2CCCCC2)CC1` [compound 148, 2-[(3S)-1-[5-(cyclohexyl-carbamoyl)-6-(4-ethylsulfonyl-piperazin-1-yl)pyridin-2-yl]-3-piperidyl]acetic acid], with 56%; and `O=C(O)C[C@@H]1CCCN(c2ccc(C(=O)NC3CCCCC3)c(N3CCN(S(=O)(=O)c4ccccc4)CC3)n2)C1` [compound 149, 2-[(3S)-1-[6-[4-(benzenesulfonyl)piperazin-1-yl]-5-(cyclohexyl-carbamoyl)pyridin-2-yl]-3-piperidyl]acetic acid], with 83%. For the compound `O=C(O)C[C@@H]1CCCN(c2ccc(C(=O)NC3CCCCC3)c(N3CCN(C(=O)OCc4ccccc4)CC3)n2)C1` [compound 150, 2-[(3S)-1-[5-(cyclohexylcarbamoyl)-6-(4-phenylmethoxy-carbonylpiperazin-1-yl)pyridin-2-yl]-3-piperidyl]acetic acid], the inhibition at 30 µM in assay [2] worked out at 74%. On the same count and under the same terms, then `O=C(O)C[C@@H]1CCCN(c2ccc(C(=O)NC3CCCCC3)c(NCCc3ccccc3)n2)C1` [compound 152, 2-[(3S)-1-[5-(cyclohexylcarbamoyl)-6-(phenethylamino)pyridin-2-yl]-3-piperidyl]acetic acid], with 81%; and `CN(CCc1ccccc1)c1nc(N2CCC[C@@H](CC(=O)O)C2)ccc1C(=O)NC1CCCCC1` [compound 153, 2-[(3S)-1-[5-(cyclohexylcarbamoyl)-6-(methyl-phenethyl-amino)pyridin-2-yl]-3-piperidyl]acetic acid], with 92%. As for `O=C(O)C[C@@H]1CCCN(c2ccc(C(=O)NC3CCCCC3)c(N3CCCC3)n2)C1` [compound 155], the “% inhibition of human 11-βHSD” value in assay [1] was determined as 94%. On the same count and under the same terms, then `O=C(O)C[C@@H]1CCCN(c2ccc(C(=O)NC3CCCCC3)c(N3CCOCC3)n2)C1` [compound 156], with 78%.

Take `CCCNc1nc(N2CCC[C@@H](CC(=O)O)C2)ccc1C(=O)N(C)C1CCCCC1` [compound 157, 2-[(3S)-1-[5-(cyclohexyl-methyl-carbamoyl)-6-propylamino-pyridin-2-yl]-3-piperidyl]acetic acid]: the inhibition at 30 µM in assay [2] turned out to be 91%. With `Cc1nc(N2CCC[C@@H](CC(=O)O)C2)ccc1C(=O)NC1CCCCC1` [compound 159], the “% inhibition of human 11-βHSD” value in assay [1] is reported as 55%.

On to `CCCSc1nc(N2CCC[C@@H](CC(=O)O)C2)ccc1C(=O)N(C)C1CCCCC1` [compound 169, 2-[(3S)-1-[5-(cyclohexyl-methyl-carbamoyl)-6-propylsulfanyl-pyridin-2-yl]-3-piperidyl]acetic acid], for which the inhibition at 30 µM in assay [2] is 100%.

In assay [2], `O=C(O)C[C@@H]1CCCN(c2ccc(C(=O)NC34CC5CC(CC(C5)C3)C4)cn2)C1` [{(3S)-1-[5-(adamantan-1-ylcarbamoyl)pyridin-2-yl]piperidin-3-yl}acetic acid, reference compound] displayed an IC50 of over 30 µM. For the compound `O=C(O)C[C@@H]1CCCN(c2ccc(C(=O)NC3CCCCC3)c(N3CCNCC3)n2)C1` [{(3S)-1-[5-(cyclohexylcarbamoyl)-6-(piperazin-1-yl)pyridin-2-yl]piperidin-3-yl}acetic acid], the IC50 in assay [2] is over 30 µM.

For the origin of these results see patent publication US8673938B2, “Chemical compounds” (priority 2006, dated 2014).
